In patent US9113629B2, “4-amino-6-(4-substituted-phenyl)-picolinates and 6-amino-2-(4-substituted-phenyl)-pyrimidine-4-carboxylates and their use as herbicides” (DOW AGROSCIENCES LLC, priority 2013, dated 2015):

system: Key Broadleaf Weed and Crop Species; assay: Post-emergent Test II herbicidal activity (Table 5); type: in vivo; conditions: post-emergence, 336 h; ABUTH: velvetleaf (Abutilon theophrasti); application rate 70 g ai/ha; 14 days after application; read-out: Visual Growth Reduction (%) 14 Days After Application, ABUTH
Summary of the method: (§1)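 Post-emergence foliar spray, 187 L/ha, track sprayer at 43 cm above canopy. Carrier: acetone/water/IPA/DMSO/Atplus 411F/Triton X-155. Plants at 1st–2nd true leaf; subirrigated afterwards; % injury scored visually at 14 d.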

Q: For `C#Cc1ccc(-c2nc(N)c(OC)c(C(=O)OC)n2)c(F)c1F` [Compound 84], which pest or weed control at 70 g/ha is on record?
A: Its pest or weed control at 70 g/ha is 0 to 29%.

same assay, conditions: post-emergence, 336 h; ABUTH: velvetleaf (Abutilon theophrasti); application rate 140 g ai/ha; 14 days after application; read-out: Visual Growth Reduction (%) 14 Days After Application, ABUTH

Q: For `C#Cc1ccc(-c2nc(N)c(OC)c(C(=O)OC)n2)c(F)c1F` [Compound 84], which pest or weed control at 140 g/ha is on record?
A: The pest or weed control at 140 g/ha was 0 to 29%.

same assay, conditions: post-emergence, 336 h; AMARE: redroot pigweed (Amaranthus retroflexus); application rate 70 g ai/ha; 14 days after application; read-out: Visual Growth Reduction (%) 14 Days After Application, AMARE

Q: For `C#Cc1ccc(-c2nc(N)c(OC)c(C(=O)OC)n2)c(F)c1F` [Compound 84], which pest or weed control at 70 g/ha is on record?
A: Its pest or weed control at 70 g/ha is 0 to 29%.

same assay, conditions: post-emergence, 336 h; AMARE: redroot pigweed (Amaranthus retroflexus); application rate 140 g ai/ha; 14 days after application; read-out: Visual Growth Reduction (%) 14 Days After Application, AMARE

Q: With `C#Cc1ccc(-c2nc(N)c(OC)c(C(=O)OC)n2)c(F)c1F` [Compound 84] as the compound, how does the pest or weed control at 140 g/ha read?
A: The pest or weed control at 140 g/ha was 0 to 29%.

same assay, conditions: post-emergence, 336 h; BRSNN: oilseed-rape, canola (Brassica napus); application rate 70 g ai/ha; 14 days after application; read-out: Visual Growth Reduction (%) 14 Days After Application, BRSNN

Q: For `C#Cc1ccc(-c2nc(N)c(OC)c(C(=O)OC)n2)c(F)c1F` [Compound 84], which pest or weed control at 70 g/ha is on record?
A: Its pest or weed control at 70 g/ha is 0 to 29%.

same assay, conditions: post-emergence, 336 h; BRSNN: oilseed-rape, canola (Brassica napus); application rate 140 g ai/ha; 14 days after application; read-out: Visual Growth Reduction (%) 14 Days After Application, BRSNN

Q: With `C#Cc1ccc(-c2nc(N)c(OC)c(C(=O)OC)n2)c(F)c1F` [Compound 84] as the compound, how does the pest or weed control at 140 g/ha read?
A: Its pest or weed control at 140 g/ha is 0 to 29%.

same assay, conditions: post-emergence, 336 h; CHEAL: lambsquarters (Chenopodium album); application rate 70 g ai/ha; 14 days after application; read-out: Visual Growth Reduction (%) 14 Days After Application, CHEAL

Q: Which pest or weed control at 70 g/ha does the source give for `C#Cc1ccc(-c2nc(N)c(OC)c(C(=O)OC)n2)c(F)c1F` [Compound 84] here?
A: Its pest or weed control at 70 g/ha is 0 to 29%.

same assay, conditions: post-emergence, 336 h; CHEAL: lambsquarters (Chenopodium album); application rate 140 g ai/ha; 14 days after application; read-out: Visual Growth Reduction (%) 14 Days After Application, CHEAL

Q: For `C#Cc1ccc(-c2nc(N)c(OC)c(C(=O)OC)n2)c(F)c1F` [Compound 84], which pest or weed control at 140 g/ha is on record?
A: The pest or weed control at 140 g/ha was 0 to 29%.

same assay, conditions: post-emergence, 336 h; EPHHL: wild poinsettia (Euphorbia heterophylla); application rate 70 g ai/ha; 14 days after application; read-out: Visual Growth Reduction (%) 14 Days After Application, EPHHL

Q: Which pest or weed control at 70 g/ha does the source give for `C#Cc1ccc(-c2nc(N)c(OC)c(C(=O)OC)n2)c(F)c1F` [Compound 84] here?
A: Its pest or weed control at 70 g/ha is 0 to 29%.

same assay, conditions: post-emergence, 336 h; EPHHL: wild poinsettia (Euphorbia heterophylla); application rate 140 g ai/ha; 14 days after application; read-out: Visual Growth Reduction (%) 14 Days After Application, EPHHL

Q: Which pest or weed control at 140 g/ha does the source give for `C#Cc1ccc(-c2nc(N)c(OC)c(C(=O)OC)n2)c(F)c1F` [Compound 84] here?
A: Its pest or weed control at 140 g/ha is 0 to 29%.

same assay, conditions: post-emergence, 336 h; HELAN: sunflower (Helianthus annuus); application rate 140 g ai/ha; 14 days after application; read-out: Visual Growth Reduction (%) 14 Days After Application, HELAN

Q: Which pest or weed control at 140 g/ha does the source give for `C#Cc1ccc(-c2nc(N)c(OC)c(C(=O)OC)n2)c(F)c1F` [Compound 84] here?
A: The pest or weed control at 140 g/ha was 60 to 74%.

same assay, conditions: post-emergence, 336 h; VIOTR: wild pansy (Viola tricolor); application rate 70 g ai/ha; 14 days after application; read-out: Visual Growth Reduction (%) 14 Days After Application, VIOTR

Q: Which pest or weed control at 70 g/ha does the source give for `C#Cc1ccc(-c2nc(N)c(OC)c(C(=O)OC)n2)c(F)c1F` [Compound 84] here?
A: The pest or weed control at 70 g/ha was 0 to 29%.

same assay, conditions: post-emergence, 336 h; VIOTR: wild pansy (Viola tricolor); application rate 140 g ai/ha; 14 days after application; read-out: Visual Growth Reduction (%) 14 Days After Application, VIOTR

Q: Which pest or weed control at 140 g/ha does the source give for `C#Cc1ccc(-c2nc(N)c(OC)c(C(=O)OC)n2)c(F)c1F` [Compound 84] here?
A: Its pest or weed control at 140 g/ha is 0 to 29%.

system: Key Grass and Sedge Weeds as well as Grass Crops; assay: Post-emergent Test II herbicidal activity (Table 6); type: in vivo; conditions: post-emergence, 336 h, CYPES: yellow nutsedge (Cyperus esculentus), 70 g ai/ha, read-out: Visual Growth Reduction (%) 14 Days After Application, CYPES
Summary of the method: as §1

Q: Which pest or weed control at 70 g/ha does the source give for `C#Cc1ccc(-c2nc(N)c(OC)c(C(=O)OC)n2)c(F)c1F` [Compound 84] here?
A: The pest or weed control at 70 g/ha was 0 to 29%.

same assay, conditions: post-emergence, 336 h, CYPES: yellow nutsedge (Cyperus esculentus), 140 g ai/ha, read-out: Visual Growth Reduction (%) 14 Days After Application, CYPES

Q: For `C#Cc1ccc(-c2nc(N)c(OC)c(C(=O)OC)n2)c(F)c1F` [Compound 84], which pest or weed control at 140 g/ha is on record?
A: The pest or weed control at 140 g/ha was 0 to 29%.

same assay, conditions: post-emergence, 336 h, DIGSA: crabgrass (Digitaria sanguinalis), 70 g ai/ha, read-out: Visual Growth Reduction (%) 14 Days After Application, DIGSA

Q: For `C#Cc1ccc(-c2nc(N)c(OC)c(C(=O)OC)n2)c(F)c1F` [Compound 84], which pest or weed control at 70 g/ha is on record?
A: Its pest or weed control at 70 g/ha is 0 to 29%.

same assay, conditions: post-emergence, 336 h, DIGSA: crabgrass (Digitaria sanguinalis), 140 g ai/ha, read-out: Visual Growth Reduction (%) 14 Days After Application, DIGSA

Q: For `C#Cc1ccc(-c2nc(N)c(OC)c(C(=O)OC)n2)c(F)c1F` [Compound 84], which pest or weed control at 140 g/ha is on record?
A: The pest or weed control at 140 g/ha was 0 to 29%.

same assay, conditions: post-emergence, 336 h, ECHCG: barnyardgrass (Echinochloa crus-galli), 70 g ai/ha, read-out: Visual Growth Reduction (%) 14 Days After Application, ECHCG

Q: For `C#Cc1ccc(-c2nc(N)c(OC)c(C(=O)OC)n2)c(F)c1F` [Compound 84], which pest or weed control at 70 g/ha is on record?
A: The pest or weed control at 70 g/ha was 0 to 29%.

same assay, conditions: post-emergence, 336 h, ECHCG: barnyardgrass (Echinochloa crus-galli), 140 g ai/ha, read-out: Visual Growth Reduction (%) 14 Days After Application, ECHCG

Q: For `C#Cc1ccc(-c2nc(N)c(OC)c(C(=O)OC)n2)c(F)c1F` [Compound 84], which pest or weed control at 140 g/ha is on record?
A: Its pest or weed control at 140 g/ha is 0 to 29%.

same assay, conditions: post-emergence, 336 h, ORYSA: rice (Oryza sativa), crop, 70 g ai/ha, read-out: Visual Growth Reduction (%) 14 Days After Application, ORYSA

Q: Which pest or weed control at 70 g/ha does the source give for `C#Cc1ccc(-c2nc(N)c(OC)c(C(=O)OC)n2)c(F)c1F` [Compound 84] here?
A: The pest or weed control at 70 g/ha was 0 to 29%.

same assay, conditions: post-emergence, 336 h, ORYSA: rice (Oryza sativa), crop, 140 g ai/ha, read-out: Visual Growth Reduction (%) 14 Days After Application, ORYSA

Q: With `C#Cc1ccc(-c2nc(N)c(OC)c(C(=O)OC)n2)c(F)c1F` [Compound 84] as the compound, how does the pest or weed control at 140 g/ha read?
A: The pest or weed control at 140 g/ha was 0 to 29%.

same assay, conditions: post-emergence, 336 h, SETFA: giant foxtail (Setaria faberi), 70 g ai/ha, read-out: Visual Growth Reduction (%) 14 Days After Application, SETFA

Q: For `C#Cc1ccc(-c2nc(N)c(OC)c(C(=O)OC)n2)c(F)c1F` [Compound 84], which pest or weed control at 70 g/ha is on record?
A: Its pest or weed control at 70 g/ha is 0 to 29%.

same assay, conditions: post-emergence, 336 h, SETFA: giant foxtail (Setaria faberi), 140 g ai/ha, read-out: Visual Growth Reduction (%) 14 Days After Application, SETFA

Q: Which pest or weed control at 140 g/ha does the source give for `C#Cc1ccc(-c2nc(N)c(OC)c(C(=O)OC)n2)c(F)c1F` [Compound 84] here?
A: Its pest or weed control at 140 g/ha is 0 to 29%.

same assay, conditions: post-emergence, 336 h, SORVU: grain sorghum (Sorghum vulgare), 70 g ai/ha, read-out: Visual Growth Reduction (%) 14 Days After Application, SORVU

Q: Which pest or weed control at 70 g/ha does the source give for `C#Cc1ccc(-c2nc(N)c(OC)c(C(=O)OC)n2)c(F)c1F` [Compound 84] here?
A: The pest or weed control at 70 g/ha was 0 to 29%.

same assay, conditions: post-emergence, 336 h, SORVU: grain sorghum (Sorghum vulgare), 140 g ai/ha, read-out: Visual Growth Reduction (%) 14 Days After Application, SORVU

Q: With `C#Cc1ccc(-c2nc(N)c(OC)c(C(=O)OC)n2)c(F)c1F` [Compound 84] as the compound, how does the pest or weed control at 140 g/ha read?
A: The pest or weed control at 140 g/ha was 0 to 29%.

same assay, conditions: post-emergence, 336 h, TRZSS (wheat, Triticum aestivum), crop, 70 g ai/ha, read-out: Visual Growth Reduction (%) 14 Days After Application, TRZSS

Q: With `C#Cc1ccc(-c2nc(N)c(OC)c(C(=O)OC)n2)c(F)c1F` [Compound 84] as the compound, how does the pest or weed control at 70 g/ha read?
A: The pest or weed control at 70 g/ha was 0 to 29%.

same assay, conditions: post-emergence, 336 h, TRZSS (wheat, Triticum aestivum), crop, 140 g ai/ha, read-out: Visual Growth Reduction (%) 14 Days After Application, TRZSS

Q: Which pest or weed control at 140 g/ha does the source give for `C#Cc1ccc(-c2nc(N)c(OC)c(C(=O)OC)n2)c(F)c1F` [Compound 84] here?
A: Its pest or weed control at 140 g/ha is 0 to 29%.

same assay, conditions: post-emergence, 336 h, ZEAMX: maize, corn (Zea mays), crop, 70 g ai/ha, read-out: Visual Growth Reduction (%) 14 Days After Application, ZEAMX

Q: For `C#Cc1ccc(-c2nc(N)c(OC)c(C(=O)OC)n2)c(F)c1F` [Compound 84], which pest or weed control at 70 g/ha is on record?
A: Its pest or weed control at 70 g/ha is 0 to 29%.

same assay, conditions: post-emergence, 336 h, ZEAMX: maize, corn (Zea mays), crop, 140 g ai/ha, read-out: Visual Growth Reduction (%) 14 Days After Application, ZEAMX

Q: With `C#Cc1ccc(-c2nc(N)c(OC)c(C(=O)OC)n2)c(F)c1F` [Compound 84] as the compound, how does the pest or weed control at 140 g/ha read?
A: The pest or weed control at 140 g/ha was 0 to 29%.

system: not given; assay: not given; conditions: not given

Q: With `C#Cc1ccc(-c2nc(N)c(OC)c(C(=O)OC)n2)c(F)c1F` [Compound 84] as the compound, how does the melting point read?
A: The melting point was 214 to 217 °C.
